The values that follow come from patent US5340807A, “Tricyclic compounds and intermediates thereof” (priority 1991, dated 1994).

Molecules are shown by their SMILES.

The test system of data set [1] is acyl coenzyme A: cholesterol acyltransferase (ACAT). The data set is described as follows: Test for ACAT inhibitory activity (microsome fraction prepared from rabbit liver). As to conditions: 10^-6 M, 37° C., 10 minutes. In kind it is biochemical. The protocol: Test for ACAT inhibitory activity The test for ACAT inhibitory activity was performed by a modified method of the method of Brecher et al. Biochim. Biophys. […] The radioactivity of the cholesterol ester spot was determined by a liquid scintillation counter. The radio-activity for each test compound was calculated by the difference between the radioactivity with the microsome fraction and the radioactivity without the microsome fraction. The radioactivity of control was determined in a similar manner without any test compound.

Data set [2] has as its system male ddy strain mice. Briefly: Test for acute toxicity (minimum lethal dose, oral). In kind it is in vivo. The note with it: mortality observed seven days after administration. The protocol: Groups of 3 male ddy strain mice weighing 20±1 g were used. The test compounds were orally administered. Seven days after administration, the mortality was observed and the minimum lethal dose (MLD) was determined.

Turning to `CC(C)c1cccc(C(C)C)c1NC(=O)C1c2ccccc2COc2ccc(Br)cc21` (single isomer, unassigned) [Compound 60, (-) -2-Bromo-6,11-dihydro-N-(2,6-diisopropylphenyl) dibenz[b,e]oxepin-11-carboxamide], the “Inhibiting rate(%) of ACAT” value in data set [1] turned out to be 99%.
Regarding `CC(C)c1cccc(C(C)C)c1NC(=O)C1c2ccccc2COc2ccc(Br)cc21` (single isomer, unassigned) [Compound 61, (+) -2-Bromo-6,11-dihydro-N-(2,6-diisopropylphenyi)dibenz[b,e]oxepin-11-carboxamide], the “Inhibiting rate(%) of ACAT” value in data set [1] stood at 92%.
`Cc1ccc2c(c1)C(C(=O)Nc1c(C)cccc1C)c1ccccc1CO2` (stereo not drawn) [Compound 2, 6,11-Dihydro-2-methyl-N-(2,6-dimethylphenyl) dibenz[b,e]-oxepin-11-carboxamide]: the “Inhibiting rate(%) of ACAT” value in data set [1] was 66%.
As to `CCc1cccc(CC)c1NC(=O)C1c2ccccc2COc2ccc(C)cc21` (stereo not drawn) [Compound 3, N-(2,6-Diethylphenyl) -6,11-dihydro-2-methyldibenz[b,e]-oxepin-11-carboxamide], in data set [2], the “Acute Toxicity (MLD), minimum lethal dose” value (shortened to “Acute Toxicity (MLD)”) is recorded as above 300 mg/kg. Besides, in data set [1], the “Inhibiting rate(%) of ACAT” value is listed as 77%.
With `Cc1ccc2c(c1)C(C(=O)Nc1ccccc1C(C)C)c1ccccc1CO2` (stereo not drawn) [Compound 5, 6,11-Dihydro-N-(2-isopropylphenyl)-2-methyldibenz[b,e]-oxepin-11-carboxamide], in data set [2], the “Acute Toxicity (MLD)” value is reported as above 300 mg/kg. The “Inhibiting rate(%) of ACAT” value in data set [1] came out at 56%.
Turning to `CC(C)c1cccc(C(C)C)c1NC(=O)C1c2ccccc2COc2ccc(F)cc21` (stereo not drawn) [Compound 16, 2-Fluoro-6,11-dihydro-N-(2,6-diisopropylphenyl)dibenz[b,e]-oxepin-11-carboxamide], the “Acute Toxicity (MLD)” value in data set [2] was above 300 mg/kg. Besides, the “Inhibiting rate(%) of ACAT” value in data set [1] is listed as 81%.
Taken in the same sequence, the figures for `CC(C)c1cccc(C(C)C)c1NC(=O)C1c2ccccc2COc2ccc(Cl)cc21` (stereo not drawn) [Compound 17, 2-Chloro-6,11-dihydro-N-(2,6-diisopropylphenyl)dibenz[b,e]-oxepin-11-carboxamide] were above 300 mg/kg and 94%.
For `CC(C)c1cccc(C(C)C)c1NC(=O)C1c2ccccc2COc2ccc(C#N)cc21` (stereo not drawn) [Compound 23, 2-Cyano-6,11-dihydro-N-(2,6-diisopropylphenyl)dibenz[b,e]-oxepin-11-carboxamide], the “Acute Toxicity (MLD)” value in data set [2] is on record as above 300 mg/kg. The “Inhibiting rate(%) of ACAT” value in data set [1] stood at 69%.
On to `CSc1cc(C(C)C)c(NC(=O)C2c3ccccc3COc3ccc(C)cc32)c(C(C)C)c1` (stereo not drawn) [Compound 30, 6,11-Dihydro-N-(2,6-diisopropyl-4-methylthiophenyl)-2-methyldibenz[b,e]oxepin-11-carboxamide], for which the “Inhibiting rate(%) of ACAT” value in data set [1] is 78%.
Same read-out and setting: the figure for `O=C(Nc1c(Cl)cccc1Cl)C1c2ccccc2COc2ccc(Br)cc21` (stereo not drawn) [Compound 39, 2-Bromo-N-(2,6-dichlorophenyl)-6,11-dihydrodibenz[b,e]oxepin-11-carboxamide] is 91%; for `CC(C)c1cccc(C(C)C)c1NC(=O)C1c2cc(Br)ccc2OCc2ncccc21` (stereo not drawn) [Compound 42] it is 91%.
As to `CSc1cc(C(C)C)c(NC(=O)C2c3ccccc3COc3ccc(Br)cc32)c(C(C)C)c1` (stereo not drawn) [Compound 44, 2-Bromo-6,11-dihydro-N-(2,6-diisopropyl-4-methylthiophenyl)dibenz[b,e]oxepin-11-carboxamide], the “Inhibiting rate(%) of ACAT” value in data set [1] is 95%.
Take `Cc1cc2c(cc1C)C(C(=O)Nc1c(C(C)C)cccc1C(C)C)c1ccccc1CO2` (stereo not drawn) [Compound 48, 6,11-Dihydro-N-(2,6-diisopropylphenyl)-2,3-dimethyldibenz[b,e]oxepin-11-carboxamide]: the “Inhibiting rate(%) of ACAT” value in data set [1] was found to be 96%.
As to `Cc1ccc(C)c2c1OCc1ccccc1C2C(=O)Nc1c(C(C)C)cccc1C(C)C` (stereo not drawn) [Compound 49, 6,11-Dihydro-N-(2,6-diisopropylphenyl)-1,4-dimethyldibenz[b,e]oxepin-11-carboxamide], in data set [1], the “Inhibiting rate(%) of ACAT” value stood at 97%.
In the case of `CCc1cccc(CC)c1NC(=O)C1c2ccccc2COc2c(C)ccc(C)c21` (stereo not drawn) [Compound 50, 6,11-Dihydro-N-(2,6-diethylphenyl) -1,4-dimethyldibenz[b,e]-oxepin-11-carboxamide], the “Inhibiting rate(%) of ACAT” value in data set [1] was found to be 93%.
`COC(=O)c1cc(C)cc2c1OCc1ccccc1C2C(=O)Nc1c(C(C)C)cccc1C(C)C` (stereo not drawn) [Compound 51, Methyl 6,11-dihydro-11-(2,6-diisopropylphenyl)aminocarbonyl-2-methyldibenz[b,e]oxepin-4-carboxylate]: the “Inhibiting rate(%) of ACAT” value in data set [1] was determined as 99%.
As for `CC(C)c1cccc(C(C)C)c1NC(=O)C1c2ccccc2COc2c1cc(Br)cc2[N+](=O)[O-]` (stereo not drawn) [Compound 53, 2-Bromo-6,11-dihydro-N-(2,6-diisopropylphenyl)-4-nitrodibenz[b,e]oxepin-11-carboxamide], the “Inhibiting rate(%) of ACAT” value in data set [1] is recorded as 100%.
Take `CC(C)c1cccc(C(C)C)c1NC(=O)C1c2ccccc2COc2c1cc(Br)cc2N(C)C.Cl` (stereo not drawn) [Compound 55, 2-Bromo-6,11-dihydro-N-(2,6-diisopropylphenyl)-4-dimethylaminodibenz[b,e]oxepin-11-carboxamide hydrochloride]: the “Inhibiting rate(%) of ACAT” value in data set [1] was 100%.
For `Cc1cc2c(c(C)c1Br)C(C(=O)Nc1c(C(C)C)cccc1C(C)C)c1ccccc1CO2` (stereo not drawn) [Compound 56, 2-Bromo-6,11-dihydro-N-(2,6-diisopropylphenyl)-1,3-dimethyldibenz[b,e]oxepin-11-carboxamide], the “Inhibiting rate(%) of ACAT” value in data set [1] was 99%.
For `CCc1cccc(CC)c1NC(=O)C1c2ccccc2COc2cc(C)c(Br)c(C)c21` (stereo not drawn) [Compound 57, 2-Bromo-N-(2,6-diethylphenyl)-6,11-dihydro-1,3-dimethyldibenz[b,e]oxepin-11-carboxamide], the “Inhibiting rate(%) of ACAT” value in data set [1] was 98%.
Turning to `Cc1cc(Cl)c2c(c1C)C(C(=O)Nc1c(C(C)C)cccc1C(C)C)c1ccccc1CO2` (stereo not drawn) [Compound 59, 4-Chloro-6,11-dihydro-N-(2,6-diisopropylphenyl)-1,2-dimethyldibenz[b,e]oxepin-11-carboxamide], in data set [1], the “Inhibiting rate(%) of ACAT” value is 100%.
Regarding `Cc1cc(C)c2c(c1)OCc1ccccc1C2C(=O)Nc1c(C(C)C)cccc1C(C)C` (stereo not drawn) [Compound 62, 6,11-Dihydro-N-(2,6-diisopropylphenyl)-1,3-dimethyldibenz-[b,e]oxepin-11-carboxamide], the “Inhibiting rate(%) of ACAT” value in data set [1] amounted to 100%.
Regarding `Cc1ccc(Cl)c2c1C(C(=O)Nc1c(C(C)C)cccc1C(C)C)c1ccccc1CO2` (stereo not drawn) [Compound 64, 4-Chloro-6,11-dihydro-N-(2,6-diisopropylphenyl) -1-methyldibenz[b,e]oxepin-11-carboxamide], in data set [1], the “Inhibiting rate(%) of ACAT” value was found to be 100%.
Turning to `Cc1ccc2c(c1)C(C(=O)Nc1c(C(C)C)cccc1C(C)C)c1ccccc1CC2` (stereo not drawn) [Compound 68, 10,11-Dihydro-N-(2,6-diisopropylphenyl)-3-methyl-5H-dibenz[a,d]cyclohepten-5-carboxamide], the “Inhibiting rate(%) of ACAT” value in data set [1] is reported as 99%.
Consider `CC(C)c1cccc(C(C)C)c1NC(=O)C1c2ccccc2CCc2cc(Br)ccc21` (stereo not drawn) [Compound 69, 2-Bromo-10,11-dihydro-N-(2,6-diisopropylphenyl) -5H-dibenz[a,d]cyclohepten-5-carboxamide], for which, in data set [1], the “Inhibiting rate(%) of ACAT” value was found to be 98%.
